Test results from US8173841B2, “Tetrahydro-naphthalene derivatives” (Xention Limited, priority 2003, dated 2012).

Experiments:
human VR1 = biological target: T1, human VR1 (Homo sapiens, UniProt Q8NER1); assay: Capsaicin-induced Ca2+ influx in the human VR1-transfected CHO cell line (Assay 1); format: cell-based; conditions: human VR1-CHOluc9aeq cells, stimulation with 10 nM capsaicin, Fluo-3 AM / FDSS-3000; compounds of purity about 40 to 90%; read-out: Activity Class (IC50 of capsaicin-induced Ca2+ influx)
T1 construct: expressed in transfected cells
Description: [Measurement of Capsaicin-Induced Ca^2+ Influx in the Human VR1-Transfected CHO Cell Line] (Assay 1)
(1) Establishment of the Human VR1-CHOluc9aeq Cell Line
Human vanilloid receptor (hVR1) cDNA was cloned from libraries of axotomized dorsal root ganglia (WO 00/29577). The cloned hVR1 cDNA was constructed with pcDNA3 vector and transfected into a CHOluc9aeq cell line. The cell line contains aequorin and CRE-luciferase reporter genes as read-out signals. The transfectants were cloned by limiting dilution in selection medium (DMEM/F12 medium (Gibco BRL) supplemented with 10% FCS, 1.4 mM Sodium pyruvate, 20 mM HEPES, 0.15% Sodium bicarbonate, 100 U/ml penicillin, 100 μg/ml streptomycin, 2 mM glutamine, non-essential amino acids and 2 mg/ml G418). Ca^2+ influx was examined in the capsaicin-stimulated clones. A high responder clone was selected and used for further experiments in the project. The human VR1-CHOluc9aeq cells were maintained in the selection medium and passaged every 3-4 days at 1−2.5×10^5 cells/flask ([…]).
(2) Measurement of Ca^2+ influx using FDSS-3000
Human VR1-CHOluc9aeq cells were suspended in a culture medium which is the same as the selection medium except for G418 and seeded at a density of 1,000 cells per well into 384-well plates (black walled clear-base/Nalge Nunc International). Following the culture for 48 hrs the medium was changed to 2 μM Fluo-3 AM (Molecular Probes) and 0.02% Puronic F-127 in assay buffer (Hank's balanced salt solution (HBSS), 17 mM HEPES (pH7.4), 1 mM Probenecid, 0.1% BSA) and the cells were incubated for 60 min at 25° C. After washing twice with assay buffer the cells were incubated with a test compound or vehicle for 20 min at 25° C. Mobilization of cytoplasmic Ca^2+ was measured by FDSS-3000 (λex=488 nm, λem=540 nm/Hamamatsu Photonics) for 60 sec after the stimulation with 10 nM capsaicin. Integral R was calculated and compared with controls.
The data corresponds to the compounds as yielded by solid phase synthesis and thus to levels of purity of about 40 to 90%. For practical reasons, the compounds are grouped in four classes of activity as follows: IC50=A (< or =) 0.1 μM<B (< or =) 0.5 μM<C (< or =) 1 μM<D

T1 sequence (Q8NER1 whole entry): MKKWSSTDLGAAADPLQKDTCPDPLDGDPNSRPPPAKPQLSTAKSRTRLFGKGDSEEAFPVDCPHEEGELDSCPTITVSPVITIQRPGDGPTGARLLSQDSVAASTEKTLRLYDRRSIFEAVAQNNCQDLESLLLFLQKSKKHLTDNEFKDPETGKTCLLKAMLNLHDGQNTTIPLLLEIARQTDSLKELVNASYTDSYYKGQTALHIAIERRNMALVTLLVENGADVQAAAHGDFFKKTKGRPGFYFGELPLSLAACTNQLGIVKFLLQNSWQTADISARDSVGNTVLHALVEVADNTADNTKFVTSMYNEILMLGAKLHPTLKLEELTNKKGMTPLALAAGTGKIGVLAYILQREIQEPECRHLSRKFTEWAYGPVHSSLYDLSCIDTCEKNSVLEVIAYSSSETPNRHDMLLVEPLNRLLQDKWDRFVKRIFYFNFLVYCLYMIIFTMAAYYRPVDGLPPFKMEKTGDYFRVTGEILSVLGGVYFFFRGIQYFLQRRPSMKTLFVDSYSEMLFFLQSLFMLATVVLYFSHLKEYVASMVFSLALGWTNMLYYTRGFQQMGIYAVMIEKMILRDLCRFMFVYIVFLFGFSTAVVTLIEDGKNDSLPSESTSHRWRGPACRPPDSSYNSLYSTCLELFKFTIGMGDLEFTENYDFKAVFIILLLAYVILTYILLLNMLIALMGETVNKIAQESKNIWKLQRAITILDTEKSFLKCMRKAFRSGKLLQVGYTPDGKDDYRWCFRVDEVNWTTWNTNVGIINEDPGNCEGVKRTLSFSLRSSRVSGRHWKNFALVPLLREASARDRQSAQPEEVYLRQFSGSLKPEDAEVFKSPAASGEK

| Compound | melting point | IC50 (human VR1) |
| --- | --- | --- |
| O=C(Nc1cccc(-c2cccc(C(F)(F)F)c2)c1)Nc1cccc2c1CC(O)CC2 (stereo not drawn) [Example 1-23] | 210 °C | < 100 nM |
| O=C(NCc1ccc(-c2ccccc2F)cc1)Nc1cccc2c1CC(O)CC2 (stereo not drawn) [Example 1-48] | 187 to 188 °C | < 100 nM |
| CCOC(=O)c1cccc(-c2cccc(NC(=O)Nc3cccc4c3CC(O)CC4)c2)c1 (stereo not drawn) [Example 1-6] | 142 to 144 °C | < 100 nM |
| O=C(NCc1ccc(-c2ccc(F)cc2F)cc1)Nc1cccc2c1CC(O)CC2 (stereo not drawn) [Example 1-49] | 191 to 192 °C | < 100 nM |
| CSc1ccc(-c2cccc(NC(=O)Nc3cccc4c3CC(O)CC4)c2)cc1 (stereo not drawn) [Example 1-10] | – | < 100 nM |
| Cc1ccc(C)c(-c2ccc(CNC(=O)Nc3cccc4c3CC(O)CC4)cc2)c1 (stereo not drawn) [Example 1-37] | 181 to 182 °C | < 100 nM |
| CN(C)c1ccc(-c2cccc(CNC(=O)Nc3cccc4c3CC(O)CC4)c2)cc1 (stereo not drawn) [Example 1-57] | 207 to 208 °C | < 100 nM |
| O=C(NCc1ccc(-c2cccc(C(F)(F)F)c2)cc1)Nc1cccc2c1CC(O)CC2 (stereo not drawn) [Example 1-44] | 196 to 197 °C | < 100 nM |
| O=C(Nc1cccc(-c2cc(Cl)cc(Cl)c2)c1)Nc1cccc2c1CC(O)CC2 (stereo not drawn) [Example 1-19] | 221 °C | < 100 nM |
| CN(C)c1ccc(-c2ccc(CNC(=O)Nc3cccc4c3CC(O)CC4)cc2)cc1 (stereo not drawn) [Example 1-30] | 205 to 206 °C | < 100 nM |
| O=C(NCc1ccc(-c2cccc(OC(F)(F)F)c2)cc1)Nc1cccc2c1CC(O)CC2 (stereo not drawn) [Example 1-39] | 218 to 219 °C | < 100 nM |
| O=C(Nc1cccc(-c2cccc(Cl)c2Cl)c1)Nc1cccc2c1CC(O)CC2 (stereo not drawn) [Example 1-20] | 204 °C | < 100 nM |
| COc1ccc(-c2cccc(CNC(=O)Nc3cccc4c3CC(O)CC4)c2)cc1OC (stereo not drawn) [Example 1-62] | 223 to 224 °C | < 100 nM |
| Cc1ccc(-c2ccc(CNC(=O)Nc3cccc4c3CC(O)CC4)cc2)cc1 (stereo not drawn) [Example 1-32] | 211 to 212 °C | < 100 nM |
| COc1ccc(OC)c(-c2cccc(CNC(=O)Nc3cccc4c3CC(O)CC4)c2)c1 (stereo not drawn) [Example 1-60] | 123 to 124 °C | < 100 nM |
| O=C(NCc1ccc(-c2c(F)cccc2F)cc1)Nc1cccc2c1CC(O)CC2 (stereo not drawn) [Example 1-50] | 204 to 205 °C | < 100 nM |
| O=C(Nc1cccc2c1CC(O)CC2)c1ccc(-c2ccc(F)c(F)c2)cc1 (stereo not drawn) [Example 2-1, 3′,4′-Difluoro-N-(7-hydroxy-5,6,7,8-tetrahydronaphthalen-1-yl)biphenyl-4-carboxamide] | 210.4 to 212.7 °C | < 100 nM |
| COc1ccc(-c2cccc(C(=O)Nc3cccc4c3CC(O)CC4)c2)cc1 (stereo not drawn) [Example 2-5] | 193.3 to 196.5 °C | 500 to 1000 nM |
| COc1ccc(-c2cccc(NC(=O)Nc3cccc4c3CC(O)CC4)c2)cc1 (stereo not drawn) [Example 1-14] | 203 °C | < 100 nM |

| Compound | melting point | IC50 (human VR1) |
| --- | --- | --- |
| O=C(Nc1cccc(-c2ccc(OCCN3CCOCC3)cc2)c1)Nc1cccc2c1CC(O)CC2 (stereo not drawn) [Example 1-29] | – | < 100 nM |
| O=C(Nc1cccc(-c2ccc(F)c(F)c2)c1)Nc1cccc2c1CC(O)CC2 (stereo not drawn) [Example 1-17] | 216 °C | < 100 nM |
| O=C(NCc1cccc(-c2ccc(F)cc2)c1)Nc1cccc2c1CC(O)CC2 (stereo not drawn) [Example 1-55] | 194 to 195 °C | < 100 nM |
| O=C(NCc1ccc(-c2cccc([N+](=O)[O-])c2)cc1)Nc1cccc2c1CC(O)CC2 (stereo not drawn) [Example 1-54] | 206 to 207 °C | < 100 nM |
| O=C(Nc1cccc(-c2cc(F)cc(F)c2)c1)Nc1cccc2c1CC(O)CC2 (stereo not drawn) [Example 1-11] | – | < 100 nM |
| Cc1cc(C)cc(-c2cccc(CNC(=O)Nc3cccc4c3CC(O)CC4)c2)c1 (stereo not drawn) [Example 1-67] | 197 to 198 °C | < 100 nM |
| O=C(NCc1cccc(-c2cc(C(F)(F)F)cc(C(F)(F)F)c2)c1)Nc1cccc2c1CC(O)CC2 (stereo not drawn) [Example 1-59] | 208 to 209 °C | < 100 nM |
| O=C(NCc1ccc(-c2cc(Cl)cc(Cl)c2)cc1)Nc1cccc2c1CC(O)CC2 (stereo not drawn) [Example 1-53] | 204 to 205 °C | < 100 nM |
| COc1ccccc1-c1cccc(CNC(=O)Nc2cccc3c2CC(O)CC3)c1 (stereo not drawn) [Example 1-61] | 129 to 130 °C | < 100 nM |
| CSc1ccc(-c2ccc(CNC(=O)Nc3cccc4c3CC(O)CC4)cc2)cc1 (stereo not drawn) [Example 1-46] | 216 to 217 °C | < 100 nM |
| O=C(Cc1cccc(-c2ccccc2)c1)Nc1cccc2c1CC(O)CC2 (stereo not drawn) [Example 3-1, 2-Biphenyl-3-yl-N-(7-hydroxy-5,6,7,8-tetrahydronaphthalen-1-yl)acetamide] | > 134 °C (dec.) | 500 to 1000 nM |
| COc1cccc(-c2cccc(NC(=O)Nc3cccc4c3CC(O)CC4)c2)c1 (stereo not drawn) [Example 1-13] | 204 °C | < 100 nM |
| COc1ccc(-c2cccc(C(=O)N(C)c3cccc4c3CC(O)CC4)c2)cc1 (stereo not drawn) [Example 2-3] | 150 to 151.2 °C | 500 to 1000 nM |
| CC(C)c1ccc(-c2ccc(CNC(=O)Nc3cccc4c3CC(O)CC4)cc2)cc1 (stereo not drawn) [Example 1-52] | 202 to 203 °C | < 100 nM |
| O=C(Nc1cccc(-c2ccc(C(=O)O)cc2)c1)Nc1cccc2c1CC(O)CC2 (stereo not drawn) [Example 1-4] | 281 to 284 °C | < 100 nM |
| O=C(Nc1cccc(-c2cc(Cl)ccc2Cl)c1)Nc1cccc2c1CC(O)CC2 (stereo not drawn) [Example 1-22] | 209 °C | < 100 nM |
| O=C(Nc1cccc(-c2ccccc2C(F)(F)F)c1)Nc1cccc2c1CC(O)CC2 (stereo not drawn) [Example 1-9] | – | < 100 nM |
| O=C(Nc1cccc(-c2ccccc2Cl)c1)Nc1cccc2c1CC(O)CC2 (stereo not drawn) [Example 1-8] | – | < 100 nM |

Other lines, results leading:

| melting point | IC50 (human VR1) | Compound |
| --- | --- | --- |
| 141 to 142 °C | < 100 nM | O=C(NCc1cccc(-c2c(F)cccc2F)c1)Nc1cccc2c1CC(O)CC2 (stereo not drawn) [Example 1-69] |
| 128 to 129 °C | < 100 nM | COc1ccccc1-c1ccc(CNC(=O)Nc2cccc3c2CC(O)CC3)cc1 (stereo not drawn) [Example 1-35] |
| 221 °C | < 100 nM | Cc1cc(C)cc(-c2cccc(NC(=O)Nc3cccc4c3CC(O)CC4)c2)c1 (stereo not drawn) [Example 1-12] |
| 188 to 189 °C | < 100 nM | O=C(NCc1cccc(-c2ccc(F)c(Cl)c2)c1)Nc1cccc2c1CC(O)CC2 (stereo not drawn) [Example 1-71] |
| 223 °C | < 100 nM | O=C(Nc1cccc(-c2cccc3ccccc23)c1)Nc1cccc2c1CC(O)CC2 (stereo not drawn) [Example 1-75] |
| 187 to 189 °C | < 100 nM | O=C(Nc1cccc(-c2ccc(F)cc2F)c1)Nc1cccc2c1CC(O)CC2 (stereo not drawn) [Example 1-5] |
| 175 to 176 °C | < 100 nM | O=C(NCc1cccc(-c2cccc(OC(F)(F)F)c2)c1)Nc1cccc2c1CC(O)CC2 (stereo not drawn) [Example 1-56] |
| 195 to 196 °C | < 100 nM | CSc1ccc(-c2cccc(CNC(=O)Nc3cccc4c3CC(O)CC4)c2)cc1 (stereo not drawn) [Example 1-68] |
| 191 to 192 °C | < 100 nM | O=C(NCc1ccc(-c2cccc(F)c2)cc1)Nc1cccc2c1CC(O)CC2 (stereo not drawn) [Example 1-38] |
| 215 °C | < 100 nM | CN(C)c1ccc(-c2cccc(NC(=O)Nc3cccc4c3CC(O)CC4)c2)cc1 (stereo not drawn) [Example 1-26] |
| 152 to 153 °C | < 100 nM | O=C(NCc1cccc(-c2ccc(Cl)cc2Cl)c1)Nc1cccc2c1CC(O)CC2 (stereo not drawn) [Example 1-72] |
| 113 to 115 °C | < 100 nM | CSc1ccc(-c2cc(CNC(=O)Nc3cccc4c3CC(O)CC4)ccc2N2CCCCC2)cc1 (stereo not drawn) [Example 1-76] |
| 205 to 206 °C | < 100 nM | O=C(NCc1ccc(-c2ccc(F)c(Cl)c2)cc1)Nc1cccc2c1CC(O)CC2 (stereo not drawn) [Example 1-42] |
| 205 to 206 °C | 500 to 1000 nM | COc1ccc(-c2ccc(CNC(=O)Nc3cccc4c3CC(O)CC4)cc2)cc1OC (stereo not drawn) [Example 1-47] |
| – | < 100 nM | O=C(Nc1cccc(-c2ccc(C(F)(F)F)cc2)c1)Nc1cccc2c1CC(O)CC2 (stereo not drawn) [Example 1-7] |
| – | 500 to 1000 nM | O=C(Cc1cccc(-c2ccc(F)cc2)c1)Nc1cccc2c1CC(O)CC2 (stereo not drawn) [Example 3-2] |
